According to ChEMBL document CHEMBL1201862, “PubChem BioAssay data set” (2004):
Calls of active or inactive are those of the source.

Key:
[1] = target: T1, RNA-binding protein pos-1 (Caenorhabditis elegans, UniProt G5EF15); test: inhibitors of POS-1/mex-3 RNA binding, dose response, biochemical, fluorescence polarization (AID 1964);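 note: purified POS-1 fused to maltose binding protein made in E. coli; potency of compounds blocking POS-1 binding to fluorescent RNA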
T1 sequence (G5EF15 whole entry): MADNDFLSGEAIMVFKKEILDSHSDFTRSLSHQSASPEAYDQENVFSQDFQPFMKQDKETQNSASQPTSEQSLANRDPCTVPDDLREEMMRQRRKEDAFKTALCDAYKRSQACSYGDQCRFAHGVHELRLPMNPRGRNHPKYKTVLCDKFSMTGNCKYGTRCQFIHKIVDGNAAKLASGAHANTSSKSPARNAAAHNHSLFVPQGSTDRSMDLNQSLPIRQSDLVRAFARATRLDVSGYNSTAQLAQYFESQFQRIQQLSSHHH

[2] = target: Alkaline phosphatase, placental type (Homo sapiens, UniProt P05187); test: PLAP enzyme inhibitors, confirmation, biochemical, luminescence (AID 1512); type: functional
[3] = target: T2, Zinc finger protein mex-5 (Caenorhabditis elegans, UniProt Q9XUB2); test: MEX-5/TCR-2 RNA interaction inhibitors, dose response, biochemical, C. elegans, fluorescence polarization (AID 1960)
T2 sequence (Q9XUB2 whole entry): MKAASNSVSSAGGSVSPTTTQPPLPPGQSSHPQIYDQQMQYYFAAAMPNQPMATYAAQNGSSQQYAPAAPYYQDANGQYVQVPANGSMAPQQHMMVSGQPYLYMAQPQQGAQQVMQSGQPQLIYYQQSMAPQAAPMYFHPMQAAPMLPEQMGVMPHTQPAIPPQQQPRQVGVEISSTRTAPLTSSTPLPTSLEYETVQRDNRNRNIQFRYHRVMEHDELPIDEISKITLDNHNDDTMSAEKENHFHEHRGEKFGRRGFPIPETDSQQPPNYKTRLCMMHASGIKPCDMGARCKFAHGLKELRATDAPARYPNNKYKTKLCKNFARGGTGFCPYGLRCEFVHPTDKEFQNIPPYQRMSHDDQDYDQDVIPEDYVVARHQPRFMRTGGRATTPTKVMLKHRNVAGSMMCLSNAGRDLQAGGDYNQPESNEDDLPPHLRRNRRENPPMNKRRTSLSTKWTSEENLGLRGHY

[4] = target: T3, Replicative DNA helicase DnaB (Mycobacterium tuberculosis, UniProt P9WMR3); test: DnaB intein splicing inhibitors, dose response, biochemical, cell-free fluorescence (AID 449749); type: functional
T3 sequence (P9WMR3 whole entry): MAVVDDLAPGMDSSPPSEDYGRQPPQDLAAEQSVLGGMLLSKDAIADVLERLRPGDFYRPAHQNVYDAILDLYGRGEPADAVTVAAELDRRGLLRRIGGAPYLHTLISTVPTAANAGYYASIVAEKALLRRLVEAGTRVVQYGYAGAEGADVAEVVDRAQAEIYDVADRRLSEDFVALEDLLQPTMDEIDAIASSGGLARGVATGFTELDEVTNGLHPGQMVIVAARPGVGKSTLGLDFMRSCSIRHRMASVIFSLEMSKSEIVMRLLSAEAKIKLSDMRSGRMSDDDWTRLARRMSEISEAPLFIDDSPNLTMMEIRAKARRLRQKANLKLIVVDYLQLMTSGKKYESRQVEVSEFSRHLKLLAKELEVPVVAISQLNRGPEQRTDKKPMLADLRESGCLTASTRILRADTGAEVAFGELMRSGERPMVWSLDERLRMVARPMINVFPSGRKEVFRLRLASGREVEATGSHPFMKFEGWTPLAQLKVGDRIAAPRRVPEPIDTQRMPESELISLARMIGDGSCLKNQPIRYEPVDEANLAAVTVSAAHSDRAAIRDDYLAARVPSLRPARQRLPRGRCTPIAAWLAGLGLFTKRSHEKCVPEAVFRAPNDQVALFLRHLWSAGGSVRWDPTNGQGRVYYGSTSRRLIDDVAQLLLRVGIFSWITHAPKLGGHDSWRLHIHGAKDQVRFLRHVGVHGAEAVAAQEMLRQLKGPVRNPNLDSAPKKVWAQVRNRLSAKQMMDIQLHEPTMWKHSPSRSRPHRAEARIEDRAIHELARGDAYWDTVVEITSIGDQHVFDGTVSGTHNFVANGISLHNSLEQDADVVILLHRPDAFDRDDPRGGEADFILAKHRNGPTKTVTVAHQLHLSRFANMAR

[5] = Intein inhibitors as potential Tuberculosis drugs, a cytotoxicity screen. [Related pubchem assays (depositor defined):AID2221, AID2223, AID434968, AID435010, AID449749, AID449750, AID489010]; type: functional
[6] = target: T4, Protein RecA (Mycobacterium tuberculosis, UniProt P9WHJ3); test: Fluorescence Cell-Free Homogeneous Dose Retest to Identify Inhibitors of RecA-Intein Splicing Activity. [Related pubchem assays (depositor defined):AID2097, AID2223, AID489010, AID492950]; type: functional
T4 sequence (P9WHJ3 whole entry): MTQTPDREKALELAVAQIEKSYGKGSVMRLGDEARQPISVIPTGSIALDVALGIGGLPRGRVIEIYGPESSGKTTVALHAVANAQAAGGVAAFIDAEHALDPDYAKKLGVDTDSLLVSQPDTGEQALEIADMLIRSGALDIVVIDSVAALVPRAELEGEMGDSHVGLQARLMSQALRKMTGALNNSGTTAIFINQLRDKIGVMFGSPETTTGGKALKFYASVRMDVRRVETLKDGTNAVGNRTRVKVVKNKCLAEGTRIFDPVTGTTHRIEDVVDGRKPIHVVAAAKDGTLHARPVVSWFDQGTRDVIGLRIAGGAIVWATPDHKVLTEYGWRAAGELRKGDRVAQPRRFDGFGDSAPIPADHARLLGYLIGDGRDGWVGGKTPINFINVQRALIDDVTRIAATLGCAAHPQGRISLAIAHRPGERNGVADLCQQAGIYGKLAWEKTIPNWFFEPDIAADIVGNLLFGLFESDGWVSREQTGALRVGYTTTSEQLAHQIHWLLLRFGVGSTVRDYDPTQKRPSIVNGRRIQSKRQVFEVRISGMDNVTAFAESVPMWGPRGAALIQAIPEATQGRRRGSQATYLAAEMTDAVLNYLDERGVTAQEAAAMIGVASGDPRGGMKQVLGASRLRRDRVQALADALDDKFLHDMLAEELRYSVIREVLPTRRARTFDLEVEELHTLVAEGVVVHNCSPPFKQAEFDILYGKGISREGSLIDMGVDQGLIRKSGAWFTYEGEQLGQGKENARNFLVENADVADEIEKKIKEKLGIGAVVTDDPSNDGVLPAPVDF

[7] = test system: T-cell; test: inhibitors of CD8+ T cell–vesicle binding, dose response, mouse 2C CD8+ T cells, flow cytometry (AID 485284); type: functional
[8] = target: T5, Delta-type opioid receptor (Homo sapiens, UniProt P41143); test: HTS Image-Based Screen for Antagonists of the DOR Receptor. [Related pubchem assays (depositor defined):AID1777, AID1785, AID1786, AID2133]; type: functional
T5 sequence (P41143 whole entry): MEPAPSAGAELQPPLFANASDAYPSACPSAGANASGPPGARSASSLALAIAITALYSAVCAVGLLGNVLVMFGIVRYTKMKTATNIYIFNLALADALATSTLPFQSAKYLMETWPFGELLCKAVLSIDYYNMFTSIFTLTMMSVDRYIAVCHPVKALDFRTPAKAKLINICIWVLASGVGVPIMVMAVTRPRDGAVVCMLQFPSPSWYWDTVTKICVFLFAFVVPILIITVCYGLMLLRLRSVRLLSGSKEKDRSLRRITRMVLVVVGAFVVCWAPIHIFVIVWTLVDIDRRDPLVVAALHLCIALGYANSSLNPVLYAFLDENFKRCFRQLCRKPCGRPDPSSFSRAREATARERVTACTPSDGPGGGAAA

[9] = target: T6, Kappa-type opioid receptor (Homo sapiens, UniProt P41145); type: functional
T6 sequence (P41145 whole entry): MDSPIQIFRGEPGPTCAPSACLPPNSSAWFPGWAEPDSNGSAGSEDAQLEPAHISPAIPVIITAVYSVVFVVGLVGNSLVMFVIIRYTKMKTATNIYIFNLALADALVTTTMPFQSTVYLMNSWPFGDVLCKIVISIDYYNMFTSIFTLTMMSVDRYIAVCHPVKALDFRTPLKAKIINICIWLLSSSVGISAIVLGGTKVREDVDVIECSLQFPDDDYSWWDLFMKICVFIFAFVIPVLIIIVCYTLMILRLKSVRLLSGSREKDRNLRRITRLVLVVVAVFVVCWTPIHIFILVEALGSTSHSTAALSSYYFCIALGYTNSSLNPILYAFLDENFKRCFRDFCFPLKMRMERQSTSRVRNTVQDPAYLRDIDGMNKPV

[10] = inhibitors of firefly luciferase expression or activity, dose response, H4 neuroglioma cells, luminescence (AID 1990); type: functional, cell-based
[11] = target: T7, G-protein coupled receptor 35 (Homo sapiens, UniProt Q9HC97); test: GPR35 antagonists blocking zaprinast-driven arrestin recruitment, primary screen, imaging, U2OS, beta-arrestin-GFP, zaprinast agonist (AID 2058); type: functional;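 note: antagonist potency meaning inhibition of agonist-induced arrestin redistribution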
T7 sequence (Q9HC97 whole entry): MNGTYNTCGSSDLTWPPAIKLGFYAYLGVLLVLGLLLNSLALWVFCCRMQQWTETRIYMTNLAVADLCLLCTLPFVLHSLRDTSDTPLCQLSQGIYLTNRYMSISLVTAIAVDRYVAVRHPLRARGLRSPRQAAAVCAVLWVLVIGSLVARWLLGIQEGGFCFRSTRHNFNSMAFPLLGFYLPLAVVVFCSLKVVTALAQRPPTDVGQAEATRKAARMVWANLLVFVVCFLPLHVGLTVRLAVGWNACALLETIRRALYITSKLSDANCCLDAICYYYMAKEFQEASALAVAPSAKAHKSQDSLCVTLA

[12] = target: T8, G-protein coupled receptor 55 (Homo sapiens, UniProt Q9Y2T6); test: GPR55 antagonists blocking LPI-driven arrestin recruitment, primary screen, imaging, U2OS, beta-arrestin-GFP, LPI agonist (AID 2013); type: functional;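 note: antagonist potency measured as reduced agonist-driven arrestin aggregation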
[13] = target: T9, Mu-type opioid receptor (Homo sapiens, UniProt P35372); test: HTS Image-Based Screen for Agonists of the MOR Receptor. [Related pubchem assays (depositor defined):AID1777, AID1785, AID1786, AID2133]; type: functional
[14] = target: T6, Kappa-type opioid receptor; type: functional; remark: listed apart in the source
[15] = inhibitors of SNCA 5'UTR-driven reporter translation, confirmation, H4 neuroglioma cells, luminescence (AID 1988); type: functional, cell-based
[16] = target: Beta-galactosidase (Escherichia coli, UniProt Q8VNN2); type: functional
[17] = target: T5, Delta-type opioid receptor; test: HTS Image-Based Screen for Agonists of the DOR Receptor. [Related pubchem assays (depositor defined):AID1777, AID1786, AID2133]; type: functional
[18] = Luminescence Cell-Based Dose Response HTS to Identify Inhibitors of 5'UTR Stem-Loop Driven Prion Protein mRNA Translation in H4 Neuroglioblastoma Cells. [Related pubchem assays: 1827 (Project Summary), 1813 (Primary HTS)]; type: functional
[19] = target: E3 ubiquitin-protein ligase Mdm2 (Homo sapiens, UniProt Q00987); test: enhancers of MDM2-luciferase reporter signal, concentration-effect titration, project on inhibitors of MDM2 ubiquitin ligase, cellular assay, luminescent readout, 384-well plate format (AID 1394); type: functional;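 note: MDM2 E3 inhibitors raise luminescence so EC50 is for signal enhancement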
[20] = target: T9, Mu-type opioid receptor; test: SAR Analysis of Antagonists of the MOR Receptor using an Image-Based Assay - Set 3. [Related pubchem assays (depositor defined):AID1777, AID1785, AID1786, AID1966, AID2133, AID2136, AID2284, AID2285, AID2420]; type: functional
[21] = target: T6, Kappa-type opioid receptor; test: SAR analysis of Antagonists of the Kappa Opioid Receptor (KOR) using an Image-Based Assay - Set 3. [Related pubchem assays (depositor defined):AID1777, AID1785]; type: functional
[22] = target: T5, Delta-type opioid receptor; test: SAR Analysis of Antagonists of the DOR Receptor using an Image-Based Assay - Set 3. [Related pubchem assays (depositor defined):AID1777, AID1785]; type: functional
[23] = target: T6, Kappa-type opioid receptor; test: SAR analysis of small molecule antagonists of the kappa opioid receptor via a luminescent beta-arrestin assay - Set 3. [Related pubchem assays (depositor defined):AID1777, AID1778, AID1785, AID1786, AID1966, AID2133, AID2136, AID2285, AID2495]; type: functional
[24] = target: T10, Cannabinoid receptor 2 (Homo sapiens, UniProt P34972); test: SAR analysis of agonists of the Cannabinoid Receptor 2 using an Image-Based Assay - Set 2. [Related pubchem assays (depositor defined):AID1961, AID1965]; type: functional
T10 sequence (P34972 whole entry): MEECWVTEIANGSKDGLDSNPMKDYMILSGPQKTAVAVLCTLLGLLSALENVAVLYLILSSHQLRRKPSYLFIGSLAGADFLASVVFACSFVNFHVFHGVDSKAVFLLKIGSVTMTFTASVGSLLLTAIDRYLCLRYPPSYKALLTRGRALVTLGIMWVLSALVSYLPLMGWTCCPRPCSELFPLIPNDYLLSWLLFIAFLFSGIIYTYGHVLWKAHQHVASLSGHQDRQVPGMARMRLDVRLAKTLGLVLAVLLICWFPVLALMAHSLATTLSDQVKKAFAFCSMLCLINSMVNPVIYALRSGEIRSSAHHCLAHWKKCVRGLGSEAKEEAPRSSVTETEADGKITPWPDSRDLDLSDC

[25] = target: T11, Cannabinoid receptor 1 (Homo sapiens, UniProt P21554); test: SAR analysis of agonists of the Cannabinoid Receptor 1 using an Image-Based Assay - Set 3. [Related pubchem assays (depositor defined):AID1961, AID1965]; type: functional
T11 sequence (P21554 whole entry): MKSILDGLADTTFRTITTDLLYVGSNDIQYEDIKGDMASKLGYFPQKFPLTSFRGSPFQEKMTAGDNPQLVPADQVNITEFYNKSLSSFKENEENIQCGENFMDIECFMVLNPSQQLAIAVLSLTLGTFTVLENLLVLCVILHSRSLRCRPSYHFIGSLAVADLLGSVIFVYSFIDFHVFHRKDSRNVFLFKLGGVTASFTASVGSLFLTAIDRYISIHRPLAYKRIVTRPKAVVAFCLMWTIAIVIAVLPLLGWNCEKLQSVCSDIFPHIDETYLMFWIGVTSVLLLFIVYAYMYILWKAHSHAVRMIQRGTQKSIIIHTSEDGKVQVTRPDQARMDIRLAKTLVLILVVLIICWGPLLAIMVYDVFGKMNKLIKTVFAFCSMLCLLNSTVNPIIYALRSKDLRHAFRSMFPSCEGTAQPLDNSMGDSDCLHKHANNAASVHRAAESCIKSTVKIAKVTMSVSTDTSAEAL

[26] = target: T7, G-protein coupled receptor 35; test: SAR analysis of Antagonists of the GPR35 Receptor using an Image-Based Assay - Set 4. [Related pubchem assays (depositor defined):[…]]; type: functional
[27] = target: T7, G-protein coupled receptor 35; test: SAR analysis of Agonists of the GPR35 Receptor using an Image-Based Assay - Set 3. [Related pubchem assays (depositor defined):AID1961, AID1965]; type: functional
[28] = target: T11, Cannabinoid receptor 1; test: SAR analysis of antagonists of the Cannabinoid Receptor 1 using an Image-Based Assay - Set 3. [Related pubchem assays (depositor defined):AID1961, AID1965]; type: functional
[29] = target: T8, G-protein coupled receptor 55; test: SAR analysis of selective Agonists of GPR55 using an Image-Based Assay - Set 2. [Related pubchem assays (depositor defined):AID1961, AID1965]; type: functional
[30] = target: T10, Cannabinoid receptor 2; test: SAR analysis of antagonists of the Cannabinoid Receptor 2 using an Image-Based Assay - Set 2. [Related pubchem assays (depositor defined):AID1961, AID1965]; type: functional
[31] = target: Large T antigen (Simian virus 40, UniProt P03070); type: functional, Betapolyomavirus macacae;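 note: Confirmatory-stage PubChem screen for compounds that inhibit SV40 T antigen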
[32] = target: T12, Voltage-gated N-type calcium channel alpha-1B subunit/Amyloid beta A4 precursor protein-binding family A member 1 (Homo sapiens, UniProt Q00975+Q02410); type: protein assay
T12 sequence (Q00975 whole entry): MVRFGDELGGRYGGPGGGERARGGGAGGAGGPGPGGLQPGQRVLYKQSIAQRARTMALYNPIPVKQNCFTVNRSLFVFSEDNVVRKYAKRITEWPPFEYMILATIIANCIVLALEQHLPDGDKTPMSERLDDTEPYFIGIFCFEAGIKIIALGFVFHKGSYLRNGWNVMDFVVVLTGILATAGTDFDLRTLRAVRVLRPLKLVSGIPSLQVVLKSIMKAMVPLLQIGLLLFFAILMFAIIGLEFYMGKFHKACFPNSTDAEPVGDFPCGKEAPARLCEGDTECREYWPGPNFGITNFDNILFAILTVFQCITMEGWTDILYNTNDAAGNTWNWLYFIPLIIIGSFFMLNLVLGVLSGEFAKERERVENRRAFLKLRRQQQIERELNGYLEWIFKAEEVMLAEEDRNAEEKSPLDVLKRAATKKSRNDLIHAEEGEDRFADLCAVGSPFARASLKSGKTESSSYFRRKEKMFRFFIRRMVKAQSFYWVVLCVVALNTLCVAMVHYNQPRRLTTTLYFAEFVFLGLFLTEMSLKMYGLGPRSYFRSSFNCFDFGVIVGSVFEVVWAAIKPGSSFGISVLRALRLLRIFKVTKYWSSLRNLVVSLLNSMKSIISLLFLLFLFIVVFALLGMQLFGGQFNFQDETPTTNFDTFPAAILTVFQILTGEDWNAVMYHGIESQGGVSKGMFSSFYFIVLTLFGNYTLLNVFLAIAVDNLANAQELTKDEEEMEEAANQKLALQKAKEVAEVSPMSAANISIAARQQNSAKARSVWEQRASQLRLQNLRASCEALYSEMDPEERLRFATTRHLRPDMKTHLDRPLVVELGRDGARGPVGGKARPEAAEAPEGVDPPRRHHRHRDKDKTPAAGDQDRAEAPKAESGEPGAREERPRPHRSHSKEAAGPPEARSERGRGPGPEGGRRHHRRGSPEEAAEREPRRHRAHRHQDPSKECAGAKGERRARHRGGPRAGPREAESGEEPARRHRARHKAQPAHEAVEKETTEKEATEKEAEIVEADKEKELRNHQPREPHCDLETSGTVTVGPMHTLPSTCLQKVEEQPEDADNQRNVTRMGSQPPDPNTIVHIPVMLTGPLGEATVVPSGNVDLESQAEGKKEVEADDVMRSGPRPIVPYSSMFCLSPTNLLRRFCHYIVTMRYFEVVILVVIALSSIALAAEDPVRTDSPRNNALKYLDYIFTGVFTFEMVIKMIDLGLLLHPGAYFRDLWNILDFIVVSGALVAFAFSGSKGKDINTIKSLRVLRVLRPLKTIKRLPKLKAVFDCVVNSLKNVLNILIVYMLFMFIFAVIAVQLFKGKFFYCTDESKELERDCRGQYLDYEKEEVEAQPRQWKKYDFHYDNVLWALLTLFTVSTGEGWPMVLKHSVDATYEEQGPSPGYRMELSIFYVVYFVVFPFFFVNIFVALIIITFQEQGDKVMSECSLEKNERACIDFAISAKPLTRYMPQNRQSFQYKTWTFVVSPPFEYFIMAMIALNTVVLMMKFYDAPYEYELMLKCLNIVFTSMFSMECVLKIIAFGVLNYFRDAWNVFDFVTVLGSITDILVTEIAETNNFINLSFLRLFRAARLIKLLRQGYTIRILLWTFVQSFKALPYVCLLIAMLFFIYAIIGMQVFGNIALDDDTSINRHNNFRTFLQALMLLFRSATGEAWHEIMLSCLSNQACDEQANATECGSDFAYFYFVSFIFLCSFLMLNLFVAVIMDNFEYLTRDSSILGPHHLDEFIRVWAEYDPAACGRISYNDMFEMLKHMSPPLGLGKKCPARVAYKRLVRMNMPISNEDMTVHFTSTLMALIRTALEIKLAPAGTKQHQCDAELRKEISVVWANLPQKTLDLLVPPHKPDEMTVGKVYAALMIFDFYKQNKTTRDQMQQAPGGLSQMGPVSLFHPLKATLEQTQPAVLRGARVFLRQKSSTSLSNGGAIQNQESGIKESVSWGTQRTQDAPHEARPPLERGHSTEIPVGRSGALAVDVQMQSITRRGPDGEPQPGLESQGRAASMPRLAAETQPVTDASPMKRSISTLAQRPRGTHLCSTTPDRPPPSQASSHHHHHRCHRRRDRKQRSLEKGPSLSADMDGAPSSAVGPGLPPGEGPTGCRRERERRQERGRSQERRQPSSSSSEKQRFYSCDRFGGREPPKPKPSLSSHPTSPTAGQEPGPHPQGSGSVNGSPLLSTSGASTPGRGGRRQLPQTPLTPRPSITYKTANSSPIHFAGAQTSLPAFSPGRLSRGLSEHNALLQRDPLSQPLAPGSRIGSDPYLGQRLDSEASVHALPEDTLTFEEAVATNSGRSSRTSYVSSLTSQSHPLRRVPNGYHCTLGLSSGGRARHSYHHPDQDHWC
T12 sequence (Q02410 whole entry): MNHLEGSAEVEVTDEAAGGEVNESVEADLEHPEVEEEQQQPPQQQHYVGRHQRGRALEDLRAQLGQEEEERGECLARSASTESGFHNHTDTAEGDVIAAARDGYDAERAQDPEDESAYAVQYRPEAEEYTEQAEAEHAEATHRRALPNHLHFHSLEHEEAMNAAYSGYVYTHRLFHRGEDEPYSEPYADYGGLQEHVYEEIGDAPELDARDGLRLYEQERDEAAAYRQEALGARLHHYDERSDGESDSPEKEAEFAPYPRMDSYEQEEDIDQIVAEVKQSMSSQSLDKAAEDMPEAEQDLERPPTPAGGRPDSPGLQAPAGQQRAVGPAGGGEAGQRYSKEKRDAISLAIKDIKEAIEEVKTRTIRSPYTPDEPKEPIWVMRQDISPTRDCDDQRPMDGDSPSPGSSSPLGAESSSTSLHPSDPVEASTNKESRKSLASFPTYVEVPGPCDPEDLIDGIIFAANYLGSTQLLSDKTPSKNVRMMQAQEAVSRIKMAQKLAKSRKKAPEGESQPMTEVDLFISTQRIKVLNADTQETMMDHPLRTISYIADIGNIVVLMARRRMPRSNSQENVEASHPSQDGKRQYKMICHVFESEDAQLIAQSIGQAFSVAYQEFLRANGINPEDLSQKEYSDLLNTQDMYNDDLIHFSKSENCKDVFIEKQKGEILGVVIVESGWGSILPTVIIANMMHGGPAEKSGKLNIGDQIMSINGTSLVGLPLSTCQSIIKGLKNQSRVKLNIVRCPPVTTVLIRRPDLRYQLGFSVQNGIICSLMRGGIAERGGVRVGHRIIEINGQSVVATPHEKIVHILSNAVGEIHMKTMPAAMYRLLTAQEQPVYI

[33] = target: T12, Voltage-gated N-type calcium channel alpha-1B subunit/Amyloid beta A4 precursor protein-binding family A member 1; type: protein assay; remark: listed apart in the source
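Throughout, for CC50: cells exposed to compound for 72 hours before luminescence readout.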

## COCCNC(=O)CCC(=O)NNc1nc2ccccc2c2nc(C)nn12
[1]
  EC50: 118 µM (active)
[2]
  IC50: > 100 µM (inactive)
[3]
  EC50: 1.21 µM (active)

## O=C(CCl)N1c2ccccc2OCC1c1ccccc1 (stereo not given)
[4]
  AC50: 2.58 µM (active)
[5]
  CC50: 6.48 µM (active)
[6]
  EC50: 0.606 µM (active)

## CCCCn1c(N)c(N(CCOC)C(=O)c2ccc(-c3ccc([N+](=O)[O-])cc3)o2)c(=O)[nH]c1=O
[7]
  EC50: 23.9 µM (inactive)

## CC(NC(=O)Cn1ncc(Cl)c(Cl)c1=O)C12CC3CC(CC(C3)C1)C2 (stereo not given)
[4]
  AC50: 0.441 µM (active)
[8]
  IC50: 6.48 µM (active)
[9]
  IC50: 2.14 µM (active)
[10]
  EC50: 8.55 µM (active)
[11]
  IC50: 1.07 µM (active)
[6]
  EC50: 0.047 µM (active)
[12]
  IC50: 3.92 µM (active)
[13]
  EC50: > 32 µM (inactive)
[14]
  IC50: 2.63 µM
[15]
  EC50: > 120 µM (not active)
[16]
  EC50: > 31.5 µM (inactive)
[17]
  EC50: > 32 µM (inactive)
[18]
  EC50: 6.41 µM (active)
[19]
  EC50: 1.55 µM (active)

## CCc1ccc(S(=O)(=O)NCc2ccc(C(=O)NCCN(Cc3ccccc3)Cc3ccccc3)cc2)cc1
[20]
  IC50: > 32 µM (inactive)
[21]
  IC50: > 32 µM (inactive)
[22]
  IC50: > 32 µM (inactive)
[23]
  IC50: > 20 µM (inactive)

## Cc1cc2cc3c(cc2n2c(SCC(=O)Nc4nc(-c5ccccc5)cs4)nnc12)OCO3
[24]
  EC50: > 32 µM (inactive)
[25]
  EC50: > 32 µM (inactive)
[26]
  IC50: > 32 µM (inactive)
[27]
  EC50: > 32 µM (inactive)
[28]
  IC50: 15.8 µM (inactive)
[29]
  EC50: 0.0648 µM (active)
[30]
  IC50: > 32 µM (inactive)

## N#Cc1c(O)nsc1Nc1ccccc1C(F)(F)F
[31]
  IC50: 56.5 µM (active)
[32]
  IC50: > 50 µM (inactive)
[33]
  IC50: 7.54 µM (active)
